Experiments:
[1] = system: Wnt activity (Sp5-Luc reporter, SW480 colon carcinoma cells); test: Sp5-Luc Wnt reporter gene assay in SW480 colon carcinoma cells; assay type: cell-based; conditions: Homo sapiens; SW480 cells stably expressing Sp5-Luc reporter; 42 h incubation; BrightGlo luminescence normalized to DMSO
From the text: The screening assay for Wnt activity is described as follows. Reporter cell lines can be generated by stably transducing cancer cell lines (e.g., colon cancer) or primary cells (e.g., IEC-6 intestinal cells) with a lentiviral construct that includes a Wnt-responsive promoter driving expression of the firefly luciferase gene.
SW480 colon carcinoma cells were transduced with a lentiviral vector expressing luciferase with a human Sp5 promoter consisting of a sequence of eight TCF/LEF binding sites. SW480 cells stably expressing the Sp5-Luc reporter gene and a hygromycin resistance gene were selected by treatment with 150 μg/ml of hygromycin for 7 days. These stably transduced SW480 cells were expanded in cell culture and used for all further screening activities. For Sp5-Luc reporter gene assays, the cells were plated at 10,000 cells/well in 96-well plates with growth medium containing 10% fetal calf serum and incubated overnight at 37° C. and 5% CO2. Each compound was dissolved in DMSO as a 10 mM stock in standard j-vials and used to prepare compound source plates in dose-response format with 3-fold serial dilutions and a 10 mM top concentration. Compound transfer from serially diluted source plates to assay plates containing the cells was accomplished using a pintool (Multimek 96, Beckman equipped with V&P Scientific FP1S50H pins) based liquid handling protocol. This protocol used a slotted pin to transfer 50 nl of compound from a source plate well to an assay plate well containing 50 μl of cells in growth medium. […] Control wells received 50 nl of DMSO treatment for normalization and calculating IC50 values. The treated cells were incubated at 37° C. and 5% CO2 for an additional forty-two hours. Following incubation, the growth medium was removed and 50 μl of BrightGlo luminescence reagent (Promega) was added to each well of the 96-well assay plates. The plates were placed on an orbital shaker for 5 min and then luminescence was quantified on the Victor3 (Perkin Elmer) plate reader. Readings were normalized to DMSO only treated cells, and normalized activities were utilized for IC50 calculations using the dose-response log (inhibitor) vs. response-variable slope (four parameters) nonlinear regression feature available in GraphPad Prism 5.0 or 6.0.

[2] = system: primary human fibroblasts derived from IPF patients (LL29 cells); test: Inhibition of TGF-β1-induced fibrosis (αSMA staining) in primary human fibroblasts from IPF patients; assay type: cell-based; conditions: Fibroblast, 96 h, TGF-β1 20 ng/mL, 4 days, 11-point dose-response 10 μM to 1.87 nM
From the text: The above synthesized compounds were screened using primary human fibroblasts (derived from IPF patients) treated with TGF-β1 to determine their ability to inhibit the fibrotic process.
Primary human fibroblasts derived from IPF patients (LL29 cells) [^1Xiaoqiu Liu, et. al., “Fibrotic Lung Fibroblasts Show Blunted Inhibition by cAMP Due to Deficient cAMP Response Element-Binding Protein Phosphorylation”, Journal of Pharmacology and Experimental Therapeutics (2005), 315(2), 678-687; ^2Watts, K. L., et. al., “RhoA signaling modulates cyclin D1 expression in human lung fibroblasts; implications for idiopathic pulmonary fibrosis”, Respiratory Research (2006), 7(1), 88] were obtained from American Type Culture Collection (ATCC) and expanded in F12 medium supplemented with 15% Fetal Bovine Serum and Penicillin/Streptomycin.
Each compound was dissolved in DMSO as a 10 mM stock and used to prepare compound source plates. Serial dilution (1:2, 11-point dose-response curves from 10 μM to 1.87 nM) and compound transfer was performed using the ECHO 550 (Labcyte, Sunnyvale, Calif.) into 384-well clear bottom assay plates (Greiner Bio-One) with appropriate DMSO backfill for a final DMSO concentration of 0.1%. LL29 cells were plated at 1,500 cells/well in 80 μl/well F12 medium supplemented with 1% Fetal Bovine Serum. One hour after addition of the cells, TGF-β1 (Peprotech; 20 ng/mL) was added to the plates to induce fibrosis (ref. 1 and 2 above). Wells treated with TGF-β1 and containing DMSO were used as controls. Cells were incubated at 37° C. and 5% CO2 for 4 days. Following incubation for 4 days, SYTOX green nucleic acid stain (Life Technologies [Thermo Fisher Scientific]) was added to the wells at a final concentration of 1 uM and incubated at room temperature for 30 min. Cells were then fixed using 4% formaldehyde (Electron Microscopy Sciences), washed 3 times with PBS followed by blocking and permeabilization using 3% Bovine Serum Albumin (BSA; Sigma) and 0.3% Triton X-100 (Sigma) in PBS. Cells were then stained with antibody specific to α-smooth muscle actin (αSMA; Abcam) (ref 1 and 2 above) in 3% Bovine Serum Albumin (BSA; Sigma) and 0.3% Triton X-100 (Sigma) in PBS, and incubated overnight at 4° C. Cells were then washed 3 times with PBS, followed by incubation with Alexa Flor-647 conjugated secondary antibody (Life Technologies [Thermo Fisher Scientific]) and DAPI at room temperature for 1 hour. Cells were then washed 3 times with PBS and plates were sealed for imaging. αSMA staining was imaged by excitation at 630 nm and emission at 665 nm and quantified using the Compartmental Analysis program on the CellInsight CX5 (Thermo Scientific). Dead or apoptotic cells were excluded from analysis based on positive SYTOX green staining. % of total cells positive for αSMA were counted in each well and normalized to the average of 11 wells treated with TGF-β1 on the same plate using Dotmatics' Studies Software. The normalized averages (fold change over untreated) of 3 replicate wells for each compound concentration were used to create dose-responses curves and EC50 values were calculated using non-linear regression curve fit in the Dotmatics' Studies Software. The EC50 values are reported.

SMILES | IC50 [1] [nM] | EC50 [2] [nM]
CN(C)c1cncc(-c2cnc3[nH]nc(-c4nc5c(-c6cccc(F)c6)nccc5[nH]4)c3c2)c1 [Compound 7, 5-(3-(4-(3-Fluorophenyl)-1H-imidazo[4,5-c]pyridin-2-yl)-1H-pyrazolo[3,4-b]pyridin-5-yl)-N,N-dimethylpyridin-3-amine] | 35.3 | 365
CN(C)Cc1cncc(-c2cnc3[nH]nc(-c4nc5c(-c6cccc(F)c6)nccc5[nH]4)c3c2)c1 [Compound 13, 1-(5-(3-(4-(3-Fluorophenyl)-1H-imidazo[4,5-c]pyridin-2-yl)-1H-pyrazolo[3,4-b]pyridin-5-yl)pyridin-3-yl)-N,N-dimethylmethanamine] | 339 | 30
O=C(Nc1cncc(-c2cnc3[nH]nc(-c4nc5c(-c6cccc(F)c6)nccc5[nH]4)c3c2)c1)C1CC1 [Compound 19, N-(5-(3-(4-(3-Fluorophenyl)-1H-imidazo[4,5-c]pyridin-2-yl)-1H-pyrazolo[3,4-b]pyridin-5-yl)pyridin-3-yl)cyclopropanecarboxamide] | 5 | 27
CC(C)CC(=O)Nc1cncc(-c2cnc3[nH]nc(-c4nc5c(-c6ccc(F)cc6)nccc5[nH]4)c3c2)c1 [Compound 28, N-(5-(3-(4-(4-Fluorophenyl)-1H-imidazo[4,5-c]pyridin-2-yl)-1H-pyrazolo[3,4-b]pyridin-5-yl)pyridin-3-yl)-3-methylbutanamide] | 37.7 | 881
CC(C)(C)C(=O)Nc1cncc(-c2cnc3[nH]nc(-c4nc5c(-c6ccc(F)cc6)nccc5[nH]4)c3c2)c1 [Compound 34, N-(5-(3-(4-(4-Fluorophenyl)-1H-imidazo[4,5-c]pyridin-2-yl)-1H-pyrazolo[3,4-b]pyridin-5-yl)pyridin-3-yl)pivalamide] | 152 | 3060
Fc1ccc(-c2nccc3[nH]c(-c4n[nH]c5ncc(-c6cncc(CN7CCCC7)c6)cc45)nc23)cc1 [Compound 40, 3-(4-(4-Fluorophenyl)-1H-imidazo[4,5-c]pyridin-2-yl)-5-(5-(pyrrolidin-1-ylmethyl)pyridin-3-yl)-1H-pyrazolo[3,4-b]pyridine] | > 10000 | ≥ 9990
CC(C)C(=O)Nc1cncc(-c2cnc3[nH]nc(-c4nc5c(-c6ccccc6F)nccc5[nH]4)c3c2)c1 [Compound 61, N-(5-(3-(4-(2-Fluorophenyl)-1H-imidazo[4,5-c]pyridin-2-yl)-1H-pyrazolo[3,4-b]pyridin-5-yl)pyridin-3-yl)isobutyramide] | 28 | > 10000
CC(C)(C)CC(=O)Nc1cncc(-c2cnc3[nH]nc(-c4nc5c(-c6ccccc6F)nccc5[nH]4)c3c2)c1 [Compound 68, N-(5-(3-(4-(2-Fluorophenyl)-1H-imidazo[4,5-c]pyridin-2-yl)-1H-pyrazolo[3,4-b]pyridin-5-yl)pyridin-3-yl)-3,3-dimethylbutanamide] | 95.7 | 930
O=C(Nc1cncc(-c2cnc3[nH]nc(-c4nc5c(-c6ccccc6F)nccc5[nH]4)c3c2)c1)C1CCCC1 [Compound 73, N-(5-(3-(4-(2-Fluorophenyl)-1H-imidazo[4,5-c]pyridin-2-yl)-1H-pyrazolo[3,4-b]pyridin-5-yl)pyridin-3-yl)cyclopentanecarboxamide] | 60.2 | 611
CC(C)C(=O)Nc1cncc(-c2cnc3[nH]nc(-c4nc5c(-c6cccnc6)nccc5[nH]4)c3c2)c1 [Compound 87, N-(5-(3-(4-(Pyridin-3-yl)-1H-imidazo[4,5-c]pyridin-2-yl)-1H-pyrazolo[3,4-b]pyridin-5-yl)pyridin-3-yl)isobutyramide] | > 10000 | 9
CC(C)Nc1cncc(-c2cnc3[nH]nc(-c4nc5c(-c6cccnc6)nccc5[nH]4)c3c2)c1 [Compound 90, N-Isopropyl-5-(3-(4-(pyridin-3-yl)-1H-imidazo[4,5-c]pyridin-2-yl)-1H-pyrazolo[3,4-b]pyridin-5-yl)pyridin-3-amine] | 79.7 | ≥ 9990

Reference: patent publication US9493487B2, “3-(1H-imidazo[4,5-C]pyridin-2-YL)-1H-pyrazolo[3,4-B]pyridine and therapeutic uses thereof” (Samumed, LLC, priority 2014, dated 2016)
